Data set [1] concerns T. b. brucei. Put plainly: In vitro reversibility of trypanocidal effects (transient exposure). It is filed as cell-based, Trypanosoma brucei brucei. The procedure: The time and concentration dependency for oxaborole-mediated killing of T. b. brucei, under constant (time-kill) and transient (reversibility) drug-pressure, was determined as described previously (Nare et al. 2010).
Reversibility was assessed as the ability T. b. brucei parasites to recover from transient exposure (0–24 h) to test benzoxaboroles (0·02–10 μg mL^−1). Trypanosomes were seeded in clear 96-well ‘V’-bottom plates at a density of 1×10^5 parasites per well; one plate was prepared for each time-point. After the designated incubation time, each plate was removed from the incubator and centrifuged at 4400 g for 5 min to sediment parasites. The supernatant containing the test compound was aspirated and three washing cycles were performed where 100 μl of warmed HMI-9 media was added to each well and then aspirated. […] Thus, each concentration and time-point was evaluated in triplicate. Each plate was incubated for a further 72 h, whereupon, trypanocidal activity was determined using resazurin (Sigma-Aldrich, St. Louis, MO) where 20 μl of a 25 mg/100 mL stock in PBS was added, incubated for an additional 4–6 h and fluorescence measured using the EnVision plate reader (excitation wavelength, 530 nm and emission wavelength, 590 nm).

Data set [2] concerns T. b. brucei (TREU 667). Put plainly: Murine model of Stage 2 (CNS) HAT. The data set is classed as in vivo, mouse. On the procedure: The efficacy of benzoxaboroles was evaluated in a murine model of Stage 2 (CNS) HAT (Nare et al. [2010]; Jacobs et al. [2011]). In summary, mice (n = 10 per group) were infected by bolus i.p. injection of 1×10^4 T. b. brucei (TREU 667) parasites. A single bolus i.p. dose (10 mg kg^-1) of berenil (Sigma-Aldrich, St. Louis, MO) was administered on day 4 as a positive treatment control for haemolymphatic-stage infection. Infection of the remaining animals proceeded for 21 days to establish a CNS infection before treatment with either a single dose of berenil (as above) or test compounds by the oral route either once or twice daily over 7 days at the doses indicated below. Animals were checked at least weekly for parasitaemia and were immediately removed from cages and euthanized upon recrudescence. Animals were considered cured if they were […] for at least 180 days after treatment.

A short description of data set [3]: Unbound brain exposure (AUC0-24) in uninfected mice after once daily oral SCYX-7158. To be noted: 12·5 mg kg^−1 once daily. The data set is classed as in vivo, mouse. On the procedure:
The CNS disposition and pharmacokinetics of the benzoxaboroles were evaluated in infected and uninfected mice following oral administration. In vivo phases of single-dose rodent PK studies were performed at Vivisource (Waltham, MA) following Institutional Animal Care and Use Committee (IACUC) review in an Association for Assessment and Accreditation of Laboratory Animal Care International (AAALAC)-approved facility. Studies in Trypanosoma brucei brucei (TREU 667 strain) infected mice, or uninfected satellite animals, were performed after IACUC review at Pace University (NewYork, NY).
Male CD-1 or female Swiss Webster mice (approximately 25 g) were administered test compounds by oral gavage either once (QD) or twice per day (Q12 h) with doses ranging between 6 and 100 mg kg^−1 as described below. All compounds were formulated as an in situ sodium salt in 2% (v/v) ethanol, 5% (m/v) dextrose, to yield typically clear colourless solutions that were administered at 4 mL kg^−1. Blood samples for pharmacokinetic studies were collected into polypropylene tubes containing K2EDTA anticoagulant and stored on wet ice until centrifuged and processed to plasma. Plasma was stored at −80 °C. Blood samples from mice were collected via cardiac puncture under terminal anaesthesia. Rodents were euthanized in a CO2 chamber before collection of terminal blood or tissue samples. Brain tissues were blotted dry and stored at approximately −80 °C.
Pharmacokinetic studies were performed in CD-1 mice to establish AUC0–24 following single and 7×once daily oral doses of 6·25, 12·5, 25, 50 and 100 mg kg^−1 SCYX-7158 (Jacobs et al. [2011]). […] Values for unbound AUC0–24 in brain were calculated using the single and steady-state exposure data (non-parametric super-positioning indicated steady-state was mostly attained on day 2 so day 7 data were employed for days 2–7 rather than modelled data for days 2–6) and compared to the target unbound AUC from the in vitro reversibility studies (Fig. 9).

In data set [4] the test system is MDCKII-hMDR1 monolayer (Pgp efflux transporter). Put plainly: MDCKII-hMDR1 monolayer permeability and Pgp-mediated efflux. It is filed as in vitro ADME. On the procedure: The propensity of test compounds to cross the BBB was examined using an in vitro MDCKII-hMDR1 monolayer assay (Polli et al. [2001]). In summary, MDCKII-hMDR1 cells (Netherlands Cancer Institute, Amsterdam, the Netherlands) were seeded at a density of 3×10^5 cells per well onto microporous polycarbonate membranes in 12 well Costar Transwell plates (Corning Inc., Lowell, MA). The cells were incubated for 3 days during which time they formed confluent monolayers. Trans-epithelial resistance (TEER) was measured for each insert to ensure the integrity of the monolayer (acceptable TEER >160 Ω cm^2). The permeability and susceptibility for Pgp-mediated efflux was evaluated by adding each compound at a concentration of 3 μM, in the presence or absence of 2 μM GF120918 (a potent Pgp inhibitor), to the apical compartment. Competency of the Pgp efflux transporter was confirmed by assay of propranolol (non-substrate) and amprenavir (substrate). Cell monolayers were incubated in triplicate with shaking (160 rpm) at 37 °C in a 5% CO2-enriched humidified atmosphere for 1 h. Samples were removed from the apical and basolateral compartments after incubation and assayed for test compound concentrations by LC-MSMS. Values for mass balance, PappA−B, PappA−B+GF918, and absorption quotient (AQ) were calculated for each compound (Troutman and Thakker, [2003]; Thiel-Demby et al. [2004]). Acceptance criterion for mass balance was 70–120%.

Setting [5] is: 6·25 mg kg^−1 day^−1 oral for 7 days.

As to `CC1(C)OB(O)c2cc(NC(=O)c3ccc(F)cc3C(F)(F)F)ccc21` [SCYX-7158], in data set [1] (Cu 0·123 μg mL^−1 (Ct 0·313 μg mL^−1), 24 h incubation), the “reduction in survival relative to untreated control parasites” value amounted to 24%. In addition, the “exposure time tolerated without impact on survival” value in data set [1] (Cu 1·11 μg mL^−1 (Ct 1·25 μg mL)) is recorded as 8 h. In addition, the cure outcome in data set [2] (50 mg kg^−1, single oral dose) is listed as “No animals were cured”. Besides, in data set [2] (50 mg kg^−1 oral, ⩾3 days of dosing), the cure rate came out at 100%. In data set [2] (setting [5]), the “day of recrudescence of parasitaemia after infection” value was approximately 35 days and the treatment outcome was “cleared of haemolymphatic T. b. brucei but demonstrated recrudescence of parasitaemia”. The compound further showed a cure rate in data set [2] (12·5 mg kg^−1 oral once daily for 7 days) of 80%. In addition, the cure outcome in data set [2] (⩾25 mg kg^−1 day^−1 oral for 7 days) was “complete cures”. Moreover, in data set [3], the “time unbound concentration in brain tissue exceeded IC50u on each day” value was found to be 10 h, the “time unbound concentration in brain tissue exceeded MICu on each day” value is 4 h and the “unbound AUC0–24 as percentage of the target MICu AUC” value is on record as “approximately 50%”. Further, in data set [4], the P-gp classification entry is recorded as “Non-substrate”. Moreover, the “Mass balance A–B+GF918” value in data set [4] (3 μM, with GF918) is 75%. In data set [4] (3 μM, without GF918), the “Mass balance A–B” value is 79%.

The values are drawn from paper PMC3884839, “Pharmacokinetics and pharmacodynamics utilizing unbound target tissue exposure as part of a disposition-based rationale for lead optimization of benzoxaboroles in the treatment of Stage 2 Human African Trypanosomiasis” (Parasitology, 2013).
